# Source: ChEMBL document CHEMBL4184157, “Phenoxypropanolamine derivatives as selective inhibitors of the 20S proteasome β1 and β5 subunits” (Bioorg Med Chem Lett, 2017)
# The source made the active and inactive calls. The calls are words filed in the database; no cut-off is given here.
# Assays:
# [1] = Inhibition of caspase-like activity of rabbit erythrocyte 20S proteasome beta1 subunit using Z-LLE-betaNA as substrate preincubated for 15 mins followed by substrate addition measured after 45 mins by fluorescence assay; design: species or system Oryctolagus cuniculus
# Oryctolagus cuniculus [2] = organism: Oryctolagus cuniculus; experiment: Inhibition of trypsin-like activity of rabbit erythrocyte 20S proteasome beta2 subunit at 100 uM using BocLRR-AMC as substrate preincubated for 5 mins followed by substrate addition measured after 45 mins by fluorescence assay
# [3] = Inhibition of chymotrypsin-like activity of rabbit erythrocyte 20S proteasome beta5 subunit using Suc-LLVY-AMC as substrate preincubated for 15 mins followed by substrate addition measured after 45 mins by fluorescence assay; design: species or system Oryctolagus cuniculus
# Oryctolagus cuniculus [4] = organism: Oryctolagus cuniculus; experiment: Inhibition of caspase-like activity of rabbit erythrocyte 20S proteasome beta1 subunit at 100 uM using Z-LLE-betaNA as substrate preincubated for 15 mins followed by substrate addition measured after 45 mins by fluorescence assay
# Oryctolagus cuniculus [5] = organism: Oryctolagus cuniculus; experiment: Inhibition of chymotrypsin-like activity of rabbit erythrocyte 20S proteasome beta5 subunit at 100 uM using Suc-LLVY-AMC as substrate preincubated for 15 mins followed by substrate addition measured after 45 mins by fluorescence assay
# [6] = molecular target: Cathepsin B (Homo sapiens) (UniProt P07858); experiment: Inhibition of human hepatocyte cathepsin B protease using Z-RR-AMC as substrate by fluorescence assay
# [7] = molecular target: T1, Calpain-1 catalytic subunit (Homo sapiens) (UniProt P07384); experiment: Inhibition of human erythrocyte calpain 1 protease using Suc-LLVY-AMC as substrate by fluorescence assay
# T1 sequence (whole entry): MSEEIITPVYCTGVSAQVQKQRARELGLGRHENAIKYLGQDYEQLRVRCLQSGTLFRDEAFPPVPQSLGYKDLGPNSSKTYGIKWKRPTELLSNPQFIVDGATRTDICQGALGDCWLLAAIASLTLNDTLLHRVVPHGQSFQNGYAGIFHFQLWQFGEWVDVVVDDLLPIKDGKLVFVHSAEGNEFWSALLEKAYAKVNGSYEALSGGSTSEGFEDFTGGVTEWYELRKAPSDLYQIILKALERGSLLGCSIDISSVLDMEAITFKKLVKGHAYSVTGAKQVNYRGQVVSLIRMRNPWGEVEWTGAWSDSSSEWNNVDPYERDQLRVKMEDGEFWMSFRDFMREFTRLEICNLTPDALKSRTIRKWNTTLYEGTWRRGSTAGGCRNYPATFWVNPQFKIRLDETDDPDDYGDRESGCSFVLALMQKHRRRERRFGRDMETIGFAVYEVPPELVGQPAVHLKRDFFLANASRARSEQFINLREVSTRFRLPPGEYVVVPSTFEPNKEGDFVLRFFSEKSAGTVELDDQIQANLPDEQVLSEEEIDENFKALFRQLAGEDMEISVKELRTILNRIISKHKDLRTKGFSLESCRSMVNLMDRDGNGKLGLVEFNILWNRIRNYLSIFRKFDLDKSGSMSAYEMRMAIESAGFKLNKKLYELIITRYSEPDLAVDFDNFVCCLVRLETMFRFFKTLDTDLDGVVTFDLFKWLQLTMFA
# Rattus norvegicus [8] = experiment: In vivo antiproliferative activity against ip dosed Wistar rat bone marrow cells from femora assessed as inhibition of cell division measured by counting metaphase plates by light microscopic method; type: functional, organism-based
# HeLa [9] = experiment: Cytotoxicity against human HeLa cells at 10 uM after 72 hrs by XTT assay; type: functional, cell-based
# HeLa [10] = experiment: Antiproliferative activity against human HeLa cells assessed as fragmented nuclei at 50 uM after 72 hrs by microscopic method; type: functional, cell-based
# HeLa [11] = experiment: Antiproliferative activity against human HeLa cells at 10 uM after 72 hrs by microscopic method; type: functional, cell-based
# HeLa [12] = experiment: Antiproliferative activity against human HeLa cells after 72 hrs by XTT assay; type: functional, cell-based
# Rattus norvegicus [13] = experiment: In vivo antiproliferative activity against Wistar rat bone marrow cells from femora assessed as inhibition of cell division measured by counting metaphase plates administered at 0.2 mg per rat, ip by light microscopic method; design: scale not given: the % may be the effect or the level left
# Rattus norvegicus [14] = experiment: In vivo antiproliferative activity against Wistar rat bone marrow cells from femora assessed as inhibition of cell division measured by counting metaphase plates administered at 2 mg per rat, ip by light microscopic method; design: scale not given: the % may be the effect or the level left
IC50 [1],inhibition (Oryctolagus cuniculus [2]),IC50 [3],inhibition (Oryctolagus cuniculus [4]),SMILES,other results
48 µM,–,–,–,CC1(C)OC(=O)c2c1ccn(CCc1ccccc1)c2=O,–
22 µM,40%,17.1 µM,–,COc1ccccc1OCC(O)CNCC1(c2cccs2)CCCCC1 (stereo not drawn),–
–,53%,40 µM,inactive,OC(CNCC1(c2cccs2)CCOCC1)COc1ccc(Cl)cc1 (stereo not drawn),–
30 µM,36%,15.5 µM,–,Cc1ccc(OCC(O)CNCC2(c3cccs3)CCCCC2)cc1 (stereo not drawn),–
–,inactive,–,inactive,NCC1(c2cccs2)CCCC1,inhibition (Oryctolagus cuniculus [5]): 26%
66.5 µM,41%,19.3 µM,–,OC(CNCC1(c2cccs2)CCCC1)COc1ccccc1 (stereo not drawn),inhibition [6]: inactive; inhibition [7]: inactive
18 µM,42%,15.8 µM,–,OC(CNCC1(c2cccs2)CCCC1)COc1ccc(Cl)cc1 (stereo not drawn),Activity (Rattus norvegicus [8]): Dose-dependent effect; Activity (HeLa [9]): inactive; Activity (HeLa [10]): Active; Activity (HeLa [11]): inactive; Activity (HeLa [12]): Dose-dependent effect; inhibition [6]: inactive; Activity (Rattus norvegicus [13]): 50%; inhibition [7]: inactive; Activity (Rattus norvegicus [14]): 75%
12.8 µM,inactive,18 µM,–,OC(CNCC1(c2cccs2)CCCCC1)COc1ccc(Cl)cc1 (stereo not drawn),–
36 µM,48%,37.2 µM,–,COc1ccccc1OCC(O)CNCC1(c2cccs2)CCCC1 (stereo not drawn),–
–,inactive,–,inactive,NCC1(c2cccs2)CCOCC1,inhibition (Oryctolagus cuniculus [5]): inactive
18.1 µM,inactive,14.9 µM,–,OC(CNCC1(c2cccs2)CCCCC1)COc1ccccc1 (stereo not drawn),–
–,39%,–,36%,OC(CNCC1(c2cccs2)CCOCC1)COc1ccccc1 (stereo not drawn),inhibition (Oryctolagus cuniculus [5]): 31%
–,inactive,–,inactive,COc1ccccc1OCC(O)CNCC1(c2cccs2)CCOCC1 (stereo not drawn),inhibition (Oryctolagus cuniculus [5]): inactive
–,–,3 µM,–,O=C(O)CSc1cc(NS(=O)(=O)c2cccs2)c2ccccc2c1O,–
–,49%,80 µM,inactive,Cc1ccc(OCC(O)CNCC2(c3cccs3)CCOCC2)cc1 (stereo not drawn),–
24.2 µM,38%,15.4 µM,–,Cc1ccc(OCC(O)CNCC2(c3cccs3)CCCC2)cc1 (stereo not drawn),–

SMILES,IC50 [1],inhibition (Oryctolagus cuniculus [2]),IC50 [3],inhibition (Oryctolagus cuniculus [4]),other results
NCC1(c2cccs2)CCCCC1,–,inactive,–,inactive,inhibition (Oryctolagus cuniculus [5]): inactive
